Earlier results in patent publication US6521608B1, “Vitamin D and its analogs in the treatment of tumors and other hyperproliferative disorders” (Oregon Health & Science University, priority 1998, dated 2003).
Where “and” joins values, the source holds several entries; their conditions need not be identical. Equal values may be shown once.

Tests used:
VDR (rat intestine) = target: T1, VDR (rat intestine) (Rattus norvegicus, UniProt P13053); conditions: cited from earlier work
T1 construct: SPC indicates the species of origin of the nVDR where c=chick intestine, r=rat intestine; from tissue; host or cells: rat intestine
T1 sequence (P13053 1-423): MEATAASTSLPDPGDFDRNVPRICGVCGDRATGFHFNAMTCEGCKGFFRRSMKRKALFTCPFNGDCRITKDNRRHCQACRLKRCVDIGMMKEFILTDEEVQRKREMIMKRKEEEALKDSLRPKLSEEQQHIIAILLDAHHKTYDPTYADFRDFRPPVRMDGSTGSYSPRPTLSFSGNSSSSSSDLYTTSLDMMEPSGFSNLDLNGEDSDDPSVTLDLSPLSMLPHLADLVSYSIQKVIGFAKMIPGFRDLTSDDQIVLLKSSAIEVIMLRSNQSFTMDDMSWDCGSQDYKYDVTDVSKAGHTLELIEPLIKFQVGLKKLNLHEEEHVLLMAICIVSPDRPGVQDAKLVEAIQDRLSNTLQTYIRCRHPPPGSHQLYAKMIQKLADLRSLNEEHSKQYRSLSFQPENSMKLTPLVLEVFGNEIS

VDR (chick intestine) = target: T2, VDR (chick intestine) (Gallus gallus, UniProt O42392); conditions: cited from earlier work
T2 construct: SPC indicates the species of origin of the nVDR where c=chick intestine, r=rat intestine; from tissue; host or cells: chick intestine
T2 sequence (O42392 1-451): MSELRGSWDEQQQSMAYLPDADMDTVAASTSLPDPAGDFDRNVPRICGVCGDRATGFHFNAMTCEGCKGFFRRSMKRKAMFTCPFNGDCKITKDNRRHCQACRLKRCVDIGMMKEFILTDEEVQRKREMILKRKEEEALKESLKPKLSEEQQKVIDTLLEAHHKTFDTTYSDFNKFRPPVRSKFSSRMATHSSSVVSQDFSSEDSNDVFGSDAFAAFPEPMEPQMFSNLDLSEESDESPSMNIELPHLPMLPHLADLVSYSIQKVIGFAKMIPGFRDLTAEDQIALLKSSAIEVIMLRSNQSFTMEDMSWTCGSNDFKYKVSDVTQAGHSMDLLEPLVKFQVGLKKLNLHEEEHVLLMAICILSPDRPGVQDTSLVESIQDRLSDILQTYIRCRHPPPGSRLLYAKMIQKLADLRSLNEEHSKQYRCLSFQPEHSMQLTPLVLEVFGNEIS

[1] = relative to calcitriol = 1; cited from earlier work
[2] = target: T3, VDR (MCF-7 human breast cancer cells) (Homo sapiens, UniProt P11473); conditions: MCF-7 cells; cited from earlier work
T3 construct: m=MCF-7 human breast cancer cells, z=rat osteosarcoma ROS 17/2.8 cells; endogenous in cells; host or cells: MCF-7 human breast cancer cells
T3 sequence (P11473 1-427): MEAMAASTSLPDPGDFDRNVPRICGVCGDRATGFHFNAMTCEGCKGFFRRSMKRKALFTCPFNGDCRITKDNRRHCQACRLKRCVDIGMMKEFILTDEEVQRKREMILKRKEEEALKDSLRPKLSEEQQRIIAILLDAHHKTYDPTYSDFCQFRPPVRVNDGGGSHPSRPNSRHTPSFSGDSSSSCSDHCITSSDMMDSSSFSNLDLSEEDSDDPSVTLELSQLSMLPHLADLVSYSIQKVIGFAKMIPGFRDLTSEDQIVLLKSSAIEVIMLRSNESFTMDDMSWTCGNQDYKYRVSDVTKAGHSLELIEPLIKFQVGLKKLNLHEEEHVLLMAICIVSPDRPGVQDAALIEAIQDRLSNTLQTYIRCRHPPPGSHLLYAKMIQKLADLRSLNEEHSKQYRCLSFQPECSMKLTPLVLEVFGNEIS

[3] = target: T4, VDR (rat osteosarcoma ROS 17/2.8 cells) (Rattus norvegicus, UniProt P13053); conditions: cited from earlier work
T4 construct: m=MCF-7 human breast cancer cells, z=rat osteosarcoma ROS 17/2.8 cells; endogenous in cells; host or cells: ROS 17/2.8 rat osteosarcoma cells
T4 sequence (P13053 1-423): T1 sequence (P13053 1-423)

[4] = system: locally advanced or cutaneous metastatic breast cancer; conditions: topical, cited from earlier work
VDR (U-937 cells) = target: T5, VDR (U-937 cells) (Homo sapiens, UniProt P11473); conditions: cited from earlier work
T5 construct: obtained in human transformed cell lines where h=HL-60 cells, u=U-937; endogenous in cells; host or cells: U-937
T5 sequence (P11473 1-427): T3 sequence (P11473 1-427)

| Compound | Relative Competitive index for VDR (Calcitriol = 100) (VDR (rat intestine)) | Relative Competitive index for VDR (Calcitriol = 100) (VDR (chick intestine)) | calcemic index (CI) [1] | other results |
| --- | --- | --- | --- | --- |
| 25-(OH)2-16-ene-23-yne-D3 | 0.07 (rat intestine) | 0.4 (chick) and <0.4 (chick) | – | – |
| C=C1/C(=C\C=C2/CCC[C@]3(C)C([C@H](C)CC#CC(C)(C)O)=CC[C@@H]23)C[C@@H](O)C[C@@H]1O [1,25-(OH)2-16-Ene-23-yne-D3, 1,25-(OH)2-16-ene-23-yne-D3] | 50 (rat intestine) | 68 (chick) and 70 (chick) and 90 (chick) and 80 (chick) | – | – |
| C=C1/C(=C\C=C2/CCC[C@]3(C)C([C@H](C)CCCC(C)(C)O)=CC[C@@H]23)C[C@@H](O)C[C@@H]1O [1,25-(OH)2-16-Ene-D3, 1,25-(OH)2-16-ene-D3] | 240 (rat intestine) and 250 (rat intestine) | 165 (chick) | – | – |
| C=C1/C(=C\C=C2/CCC[C@]3(C)[C@@H]([C@H](C)CCCC(C)C)CC[C@@H]23)C[C@@H](O)C[C@@H]1O [1alpha-(OH)-D3, 1α-hydroxyvitamin D3] | – | 0.17 (chick) | – | – |
| C=C1C(=CC=C2CC(CF)CC3(C)C2CCC3C(C)CCCC(C)(C)O)CC(O)CC1O (stereo not drawn) [11α-fluoromethyl-1α,25-(OH)2-D3] | – | – | about 0.1 | – |
| C=C1/C(=C\C=C2/CCC[C@]3(C)[C@@H]([C@H](C)OCCC(C)(C)O)CC[C@@H]23)C[C@@H](O)C[C@@H]1O [22-Oxacalcitriol, 22-oxa-1α,25-(OH)2-D3] | – | – | CI < 0.001 | Relative Competitive index for VDR (Calcitriol = 100) [2]: 100 (MCF-7 cells); Relative Competitive index for VDR (Calcitriol = 100) [3]: 100 (rat osteosarcoma) |
| C=C1/C(=C\C=C2/CCC[C@]3(C)[C@@H]([C@H](C)/C=C/C=C/C(O)(CC)CC)CC[C@@H]23)C[C@@H](O)C[C@@H]1O [EB 1089, 24a,26a,27a-trihomo-22,24-diene-1α, 25-(OH)2-D3] | – | 17 (chick) | – | – |
| C=C1/C(=C\C=C2/CCC[C@]3(C)[C@@H]([C@@H](C)OCCCC(O)(CC)CC)CC[C@@H]23)C[C@@H](O)C[C@@H]1O [KH 1060, 20-epi-22-oxa-24a,26a,27a-trihomo-1α,25-(OH)2-D3] | – | – | CI = 1.3 | – |
| C=C1/C(=C\C=C2/CCC[C@]3(C)[C@@H]([C@H](C)/C=C/[C@@H](O)C4CC4)CC[C@@H]23)C[C@@H](O)C[C@@H]1O [MC 903, 1[…]24S-(OH)2-22-Ene-26,27-dehydro-D3] | – | 111 (chick) and 76 (chick) and 100 (chick) | CI < 0.01 | patients with a 50% reduction in the bidirectional diameter of the treated lesions ([4]; patients who completed 6 weeks of treatment): Three of the 14; hypercalcemia [4]: hypercalcemia was a complication of the treatment; Relative Competitive index for VDR (Calcitriol = 100) (VDR (U-937 cells)): 240 (U-937 cells) |
| C=C1/C(=C\C=C2/CCC[C@]3(C)[C@@H]([C@H](C)CCCC(C)(C)O)CC[C@@H]23)C[C@@H](O)C[C@@H]1O [MC 1288, 1,25(OH2-20-epi-D3] | – | 147 (chick) and 120 (chick) | – | – |
